Earlier results as cited in US20210290432A1, “KIT FOR PRODUCING KERATOCONJUNCTIVAL COVER SHEET AND METHOD FOR PRODUCING KERATOCONJUNCTIVAL COVER SHEET” (OSAKA UNIVERSITY, priority 2016, published 2021).

solubility in water: poorly soluble in water
Compound: O=C(NC(Cc1cc(=O)[nH]c2ccccc12)C(=O)O)c1ccc(Cl)cc1 (stereo not shown) [Rebamipide, rebamipide]
